Patent publication US7977352B2, “Triazolopyridine compounds useful for the treatment of degenerative and inflammatory diseases” (Galapagos NV, priority 2006, dated 2011)

Assays:
[1] = test system: MMP1 expression by activated synovial fibroblasts (RASFs); assay: MMP assay: MMP1 expression by RASFs triggered with TNF-α (MMP1 ELISA); type: cell-based; settings: Fibroblast, 48 h, TNF-α trigger 10 ng/mL, semi-quantitative score, read-out: REDUCTION MMP1/TNFa
Experimental: A 384-well format ELISA for measurement of MMP1 is developed. Various primary antibodies are tested, as well as various ELISA protocols. The following protocol is developed and validated to measure MMP1 levels in SF supernatant in 384 well plates: white Lumitrac 600 384 well plates (Greiner) are coated with 2 μg/mL anti-MMP1 antibody MAB1346 (Chemicon). The antibody is diluted in buffer 40 (1.21 g Tris base (Sigma), 0.58 g NaCl (Calbiochem) and 5 mL 10% NaN3 (Sigma) in 1 L milliQ water and adjusted to pH 8.5). After overnight incubation at 4° C., plates are washed with PBS (80 g NaCl, 2 g KCl (Sigma), 11.5 g Na2HPO4.7H2O and 2 g KH2PO4 in 10 L milliQ; pH 7.4) and blocked with 100 μL/well Casein buffer (2% Casein (VWR International) in PBS). Next day, casein buffer is removed from ELISA plates and replaced by 50 μL/well EC buffer (4 g casein, 2.13 g Na2HPO4 (Sigma), 2 g bovine albumin (Sigma), 0.69 g NaH2PO4.H2O (Sigma), 0.5 g CHAPS (Roche), 23.3 g NaCl, 4 mL 0.5 M EDTA pH 8 (Invitrogen), 5 mL 10% NaN3 in 1 L milliQ and adjusted to pH 7.0). 0.25 mM DTT (Sigma) is added to the thawed sample plates. After removal of the EC buffer, 20 μL of sample is transferred to the ELISA plates. After overnight incubation at 4° C. plates are washed twice with PBS and once with PBST (PBS with 0.05% Tween-20 (Sigma)) and incubated with 35 μL/well biotinylated anti-MMP1 antibody solution (R&D). This secondary antibody is diluted in buffer C (0.82 g NaH2PO4.H2O, 4.82 g Na2HPO4, 46.6 g NaCl, 20 g bovine albumin and 4 mL 0.5M EDTA pH 8 in 2 L milliQ and adjusted to pH 7.0) at a concentration of 5 μg/mL. After 2 h of incubation at RT, plates are washed as described above and incubated with 50 μL/well streptavidin-HRP conjugate (Biosource). Streptavidin-HRP conjugate is diluted in buffer C at a concentration of 0.25 μg/mL. After 45 min, plates are washed as described above and incubated for 5 min with 50 μL/well BM Chem ELISA Substrate (Roche). Readout is performed on the Luminoscan Ascent Luminometer (Labsystems) with an integration time of 200 msec or with an Envision reader (Perkin Elmer).
SFs were acquired at passage 1 from a commercial supplier (Cell applications, Inc.). SFs are cultured in DMEM supplemented with 10% heat-inactivated FBS, 1× penicillin/streptomycin (Invitrogen) at 37° C., 10% CO2 until passage 6. Aliquots of the cells are frozen and cryopreserved in liquid nitrogen. Starting from a cryopreserved aliquot, cells are further expanded by sub-culturing cells at 1/3 ratio every week. Cells between passage 10 and 12 are routinely used in compound testing according to following protocol.
Starting from the compound master stocks (all at 10 mM concentration in 100% DMSO) a 3-fold serial dilution is made in 96-well plates in 100% DMSO. Then, plates are further diluted 45-fold in M199 medium supplemented with 1% heat-inactivated FBS to obtain a intermediate work stock.
At day 1, RASFs are seeded in 96 well plates (flat bottom, tissue culture treated, Greiner) at a density of 3000 cells/well in complete synovial growth medium (Cell Applications). Day 5, the medium is completely removed from the cells, and replaced by 81 μL of M199 medium supplemented with 1% heat-inactivated FBS followed by addition of 10 μL compound out of the intermediate work stock. After an incubation period of 90 minutes, which allows the compounds to equilibrate and enter the cells, cells are stimulated with either TNF-α or ‘complex trigger’. TNF-α trigger is added in a volume of […] to obtain final concentration of 10 ng/mL. For that, TNF-α stock (PeproTech) at 10 μg/mL was diluted to 100 ng/mL TNF-a in M199 medium supplemented with 1% FBS. ‘Complex trigger’ mix is added in a volume of 20 μL to obtain a final concentration of 12.5%. For that, ‘complex trigger’ mix, is diluted to 80% with M199 medium supplemented with 1% FBS. […]

[2] = biological target: T1, TAK1-TAB1 fusion protein (Homo sapiens, UniProt O43318); assay: In vitro TAK1 kinase assay; type: biochemical; settings: casein substrate, [33P]-γ-ATP, 90 minutes at 30° C., semi-quantitative score, read-out: POTENCY TAK1 (MAP3K7)
T1 construct: purchased Upstate 14-600
T1 sequence (O43318 with tags, fused parts or gaps limits assumed): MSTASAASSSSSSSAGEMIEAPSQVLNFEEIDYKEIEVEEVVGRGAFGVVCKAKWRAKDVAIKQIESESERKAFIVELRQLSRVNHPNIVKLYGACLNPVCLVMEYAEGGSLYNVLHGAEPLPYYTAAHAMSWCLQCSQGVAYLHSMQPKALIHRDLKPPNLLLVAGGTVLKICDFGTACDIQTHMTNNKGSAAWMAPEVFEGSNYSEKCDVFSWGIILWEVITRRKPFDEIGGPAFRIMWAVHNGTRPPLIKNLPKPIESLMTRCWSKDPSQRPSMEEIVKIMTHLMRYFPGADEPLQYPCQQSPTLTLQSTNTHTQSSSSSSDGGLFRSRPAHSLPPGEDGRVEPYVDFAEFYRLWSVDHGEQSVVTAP
Experimental: For assessing TAK1 inhibition, active TAK1-TAB1 fusion protein was used from Upstate (Cat. No, 14-600). Kinase reactions are set up in 96-well polypropylene plates in 25 μL containing 0.5 mU TAK1-TAB1 fusion protein, 5mM ATP, 0.01 μCi/μL [^33P]-γ-ATP, 0.1 mg/mL casein substrate in 1× reaction buffer containing 10 mM MOPS pH 7.0, 1 mM EDTA.
Starting from the compound master stocks (all at 10 mM concentration in 100% DMSO) a 3-fold serial dilution is made in 96-well plates in 100% DMSO. Plates are further diluted […] in H2O containing 3.5% DMSO, to obtain an intermediate work stock with compounds at 5× the final assay concentration in 5% DMSO.
5 μL of the intermediate stock is transferred into V-bottom 96 well polypropylene plates and 11 μL of Enzyme mix is added. Enzyme mix is made by combining 5 μL 5× reaction buffer ([…] pH 7.0, 1 mM EDTA), 5 μL casein (Sigma) diluted in H20 to 0.5 mg/mL and 1 μL of TAK1-TAB1 fusion protein that was prediluted to 0.5 mU/μL in 1× enzyme dilution buffer (20 mM MOPS pH 7.0, 0.1 mM EDTA, 0.01% Brij-35, 5% glycerol, 1 mM DTT, 1 mg/ml BSA).
The reactions are started by the addition of 9 μL of mixture containing ATP (20.83 uM) and [^33P]-γ-ATP (0.028 μCi/μL).
The assay is stopped 90 minutes after incubation at 30° C. by the addition of 25 μL phosphoric acid (150 mM). The label incorporated into the casein substrate is separated from labeled unincorporated ATP by filtration onto 96-well filter plates using a harvester device. After 6 washes with 75 mM phosphoric acid, the bottom of the filter plates are sealed, and incorporated label is quantified after addition of 40 μL scintillation fluid using TopCount.

[3] = test system: MMP1 expression by activated SFs; assay: MMP assay proof of principle: MMP1 produced by complex trigger activated SFs; type: cell-based; settings: Homo sapiens, supernatant of THP-1 cells treated with TNF-a (50% diluted), 48 hrs, FIG. 3, read-out: IC50 value, reduction of MMP1 expression by SFs
Experimental: A 384-well format ELISA for measurement of MMP1 is developed. Various primary antibodies are tested, as well as various ELISA protocols. The following protocol is developed and validated to measure MMP1 levels in SF supernatant in 384 well plates: white Lumitrac 600 384 well plates (Greiner) are coated with 2 μg/mL anti-MMP1 antibody MAB1346 (Chemicon). The antibody is diluted in buffer 40 (1.21 g Tris base (Sigma), 0.58 g NaCl (Calbiochem) and 5 mL 10% NaN3 (Sigma) in 1 L milliQ water and adjusted to pH 8.5). After overnight incubation at 4° C., plates are washed with PBS (80 g NaCl, 2 g KCl (Sigma), 11.5 g Na2HPO4.7H2O and 2 g KH2PO4 in 10 L milliQ; pH 7.4) and blocked with 100 μL/well Casein buffer (2% Casein (VWR International) in PBS). Next day, casein buffer is removed from ELISA plates and replaced by 50 μL/well EC buffer (4 g casein, 2.13 g Na2HPO4 (Sigma), 2 g bovine albumin (Sigma), 0.69 g NaH2PO4.H2O (Sigma), 0.5 g CHAPS (Roche), 23.3 g NaCl, 4 mL 0.5 M EDTA pH 8 (Invitrogen), 5 mL 10% NaN3 in 1 L milliQ and adjusted to pH 7.0). 0.25 mM DTT (Sigma) is added to the thawed sample plates. After removal of the EC buffer, 20 μL of sample is transferred to the ELISA plates. […] Readout is performed on the Luminoscan Ascent Luminometer (Labsystems) with an integration time of 200 msec or with an Envision reader (Perkin Elmer). […]

SMILES	IC50 [2] [µM]	IC50 [3] [µM]	IC50 [1] [µM]
CC(C)N1CCN(c2ccc(Nc3ccc(-c4ccc5cc[nH]c5c4)n4ncnc34)cc2)CC1 [Example 53, 5-(1H-indol-6-yl)-N-[4-(4-isopropylpiperazin-1-yl)phenyl][1,2,4]triazolo[1,5-a]pyridin-8-amine]	> 10	–	> 10
COc1ncc(-c2ccc(Nc3ccc(N4CCOCC4)cc3)c3ncnn23)c(OC)n1 [Example 54, 5-(2,4-dimethoxypyrimidin-5-yl)-N-(4-morpholin-4-ylphenyl)[1,2,4]triazolo[1,5-a]pyridin-8-amine]	> 10	–	> 10
CC(C)N1CCN(c2ccc(Nc3ccc(-c4c[nH]c(=O)[nH]c4=O)n4ncnc34)cc2)CC1 [Example 55, 5-(8-{[4-(4-isopropylpiperazin-1-yl)phenyl]amino}[1,2,4]triazolo[1,5-a]pyridin-5-yl)pyrimidine-2,4(1H,3H)-dione]	> 10	–	> 10
COc1ncc(-c2ccc(Nc3ccc(N4CCN(C(C)C)CC4)cc3)c3ncnn23)c(OC)n1 [Example 56, 5-(2,4-dimethoxypyrimidin-5-yl)-N-[4-(4-isopropylpiperazin-1-yl)phenyl][1,2,4]triazolo[1,5-a]pyridin-8-amine]	> 10	–	> 10
C[C@@H]1C[C@H]2[C@@H]3CCC4=CC(=O)C=C[C@]4(C)[C@@]3(F)[C@@H](O)C[C@]2(C)[C@@]1(O)C(=O)CO [dexamethasone]	–	~0.001	–

Further lines, with some results ahead:

IC50 [2] [µM]	IC50 [3] [µM]	SMILES	IC50 [1] [µM]
> 10	–	CC(C)N1CCN(c2ccc(Nc3ccc(-c4ccc5[nH]ccc5c4)n4ncnc34)cc2)CC1 [Example 51, 5-(1H-indol-5-yl)-N-[4-(4-isopropylpiperazin-1-yl)phenyl][1,2,4]triazolo[1,5-a]pyridin-8-amine]	> 10
> 10	–	c1nc2c(Nc3ccc(N4CCOCC4)cc3)ccc(-c3ccc4cc[nH]c4c3)n2n1 [Example 52, 5-(1H-indol-6-yl)-N-(4-morpholin-4-ylphenyl)[1,2,4]triazolo[1,5-a]pyridin-8-amine]	> 10
< 0.5	–	C[C@@H]1CN(c2ccc(Nc3ccc(-c4cc[nH]c(=O)c4)n4ncnc34)cc2)C[C@H](C)N1C [Example 57, 4-[8-({4-[(3R,5S)-3,4,5-trimethylpiperazin-1-yl]phenyl}amino)[1,2,4]triazolo[1,5-a]pyridin-5-yl]pyridin-2(1H)-one]	1 to 5
